Laboratory results reported in US11566057B2, “Long-acting co-agonists of the glucagon and GLP-1 receptors” (Merck Sharp & Dohme Corp., priority 2017, dated 2023).
Numbered stars: 1 amine (or outer) side, 2 acyl side, 3 side chain; on linkers, the order of the positions; unused ones are H or OH. Square brackets hold non-standard residues; d marks the D form. Side chains are listed from the residue outwards. Peptide text beside a SMILES is read from it. * marks the point of attachment. C18 diacid = O=C(O)CCCCCCCCCCCCCCCCC(=O)*; C16 diacid = O=C(O)CCCCCCCCCCCCCCC(=O)*; γGlu = O=C(O)[C@H](CCC(=O)[*:2])N[*:1]; Met(O2) = CS(=O)(=O)CC[C@H](N)C(=O)O; αMeD = C[C@](N)(CC(=O)O)C(=O)O; αMeS = C[C@](N)(CO)C(=O)O; AEEA = NCCOCCOCC(=O)O; Aib = CC(C)(N)C(=O)O

Columns and labels:
[1] = target: T1, human GLP1R (Homo sapiens, UniProt P43220); assay: cAMP activity assay at the GLP-1 receptor (GLP1R); assay type: cell-based; conditions: summary statement: EC50 at each of the glucagon and GLP-1 receptors; read-out: EC50 at the GLP-1 receptor
T1 construct: expressed in transfected cells; growth medium holds Blasticidin and Hygromycin
Outline: (§1)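 Peptides serially diluted from DMSO (10 points) and added to frozen-stock cells bearing human GLP1R (10,000 cells/well) or GCGR (30,000 cells/well), 1 h at RT, dark. EC50 by four-parameter logistic fit of HitHunter cAMPXS luminescence, read following overnight RT incubation.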

[2] = target: T2, human GCGR (Homo sapiens, UniProt P47871); assay: cAMP activity assay at the Glucagon receptor (GCGR); assay type: cell-based; conditions: for hGCGR/hGLP1R (hTone): ratio of GCGR EC50 to GLP1R EC50; for EC50: summary statement: EC50 at each of the glucagon and GLP-1 receptors, read-out: EC50 at the glucagon receptor
T2 construct: expressed in transfected cells; growth medium holds Blasticidin and Hygromycin
Outline: as §1

T2 sequence (P47871 26-477): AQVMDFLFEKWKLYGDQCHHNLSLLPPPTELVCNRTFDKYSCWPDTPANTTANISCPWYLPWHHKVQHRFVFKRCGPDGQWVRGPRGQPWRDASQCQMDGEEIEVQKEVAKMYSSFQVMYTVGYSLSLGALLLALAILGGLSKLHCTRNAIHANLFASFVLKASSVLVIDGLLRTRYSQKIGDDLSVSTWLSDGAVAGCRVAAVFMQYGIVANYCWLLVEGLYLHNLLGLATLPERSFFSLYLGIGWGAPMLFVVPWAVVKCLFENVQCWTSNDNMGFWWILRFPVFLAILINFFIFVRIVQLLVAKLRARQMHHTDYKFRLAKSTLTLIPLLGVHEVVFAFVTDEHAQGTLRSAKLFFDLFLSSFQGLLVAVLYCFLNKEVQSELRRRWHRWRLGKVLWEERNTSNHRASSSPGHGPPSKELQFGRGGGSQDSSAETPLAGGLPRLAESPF
T1 sequence (P43220 24-463): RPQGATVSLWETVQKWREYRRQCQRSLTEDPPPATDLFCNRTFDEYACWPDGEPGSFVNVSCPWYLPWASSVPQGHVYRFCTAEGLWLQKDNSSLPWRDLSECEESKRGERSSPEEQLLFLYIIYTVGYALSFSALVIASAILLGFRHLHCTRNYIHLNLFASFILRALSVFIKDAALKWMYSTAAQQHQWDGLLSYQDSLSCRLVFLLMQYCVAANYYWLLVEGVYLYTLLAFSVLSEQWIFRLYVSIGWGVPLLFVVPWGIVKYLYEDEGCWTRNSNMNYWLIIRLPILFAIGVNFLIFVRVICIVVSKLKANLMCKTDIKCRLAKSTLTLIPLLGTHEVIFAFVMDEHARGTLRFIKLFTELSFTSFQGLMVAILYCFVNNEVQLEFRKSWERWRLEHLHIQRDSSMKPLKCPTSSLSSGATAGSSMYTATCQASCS

| EC50 [1] | hGCGR/hGLP1R (hTone) [2] | EC50 [2] | SMILES |
| --- | --- | --- | --- |
| < 5 nM | 0.4 | < 5 nM | CC(C)C[C@H](NC(=O)[C@H](Cc1c[nH]c2ccccc12)NC(=O)[C@H](CCCCNC(=O)COCCOCCNC(=O)COCCOCCNC(=O)CC[C@H](NC(=O)CCCCCCCCCCCCCCC(=O)O)C(=O)O)NC(=O)[C@@H](NC(=O)[C@H](Cc1ccccc1)NC(=O)[C@H](CC(=O)O)NC(=O)[C@H](CCC(N)=O)NC(=O)[C@H](C)NC(=O)[C@H](C)NC(=O)[C@H](CCCNC(=N)N)NC(=O)C(C)(C)NC(=O)[C@H](CC(=O)O)NC(=O)[C@H](CC(C)C)NC(=O)[C@H](Cc1ccc(O)cc1)NC(=O)[C@H](CCCCN)NC(=O)[C@H](CO)NC(=O)[C@H](Cc1ccc(O)cc1)NC(=O)[C@H](CC(=O)O)NC(=O)[C@H](CO)NC(=O)[C@@H](NC(=O)[C@H](Cc1ccccc1)NC(=O)[C@@H](NC(=O)CNC(=O)[C@H](CCC(N)=O)NC(=O)C(C)(C)NC(=O)[C@@H](N)Cc1c[nH]cn1)[C@@H](C)O)[C@@H](C)O)C(C)C)C(=O)N[C@@H](CCS(C)(=O)=O)C(=O)N[C@@H](CCC(=O)N[C@H](C(N)=O)[C@@H](C)O)C(=O)O [TP828] (H-H[Aib]QGTFTSDYSKYLD[Aib]RAAQDFVK([AEEA-AEEA-γGlu-C16 diacid])WL[Met(O2)][γGlu]T-NH2) |
| < 5 nM | 0.6 | < 5 nM | CC(C)C[C@H](NC(=O)[C@H](Cc1ccc(O)cc1)NC(=O)[C@H](CCCCN)NC(=O)[C@H](CO)NC(=O)[C@H](Cc1ccc(O)cc1)NC(=O)[C@H](CC(=O)O)NC(=O)[C@H](CO)NC(=O)[C@@H](NC(=O)[C@H](Cc1ccccc1)NC(=O)[C@@H](NC(=O)CNC(=O)[C@H](CCC(N)=O)NC(=O)[C@](C)(CO)NC(=O)[C@@H](N)Cc1c[nH]cn1)[C@@H](C)O)[C@@H](C)O)C(=O)N[C@@H](CC(=O)O)C(=O)N[C@@H](C)C(=O)N[C@@H](CCCNC(=N)N)C(=O)N[C@@H](C)C(=O)N[C@@H](C)C(=O)N[C@@H](CCC(N)=O)C(=O)N[C@@H](CCCCNC(=O)COCCOCCNC(=O)COCCOCCNC(=O)CC[C@H](NC(=O)CCCCCCCCCCCCCCC(=O)O)C(=O)O)C(=O)N[C@@H](Cc1ccccc1)C(=O)N[C@H](C(=O)N[C@@H](CCC(N)=O)C(=O)N[C@@H](Cc1c[nH]c2ccccc12)C(=O)N[C@@H](CC(C)C)C(=O)N[C@@H](CCS(C)(=O)=O)C(=O)N[C@@](C)(CC(=O)O)C(=O)N[C@H](C(N)=O)[C@@H](C)O)C(C)C [TP615] (H-H[αMeS]QGTFTSDYSKYLDARAAQK([AEEA-AEEA-γGlu-C16 diacid])FVQWL[Met(O2)][αMeD]T-NH2) |
| < 5 nM | 0.7 | < 5 nM | CC(C)C[C@H](NC(=O)[C@H](Cc1ccc(O)cc1)NC(=O)[C@H](CCCCN)NC(=O)[C@H](CO)NC(=O)[C@H](Cc1ccc(O)cc1)NC(=O)[C@H](CC(=O)O)NC(=O)[C@H](CO)NC(=O)[C@@H](NC(=O)[C@H](Cc1ccccc1)NC(=O)[C@@H](NC(=O)CNC(=O)[C@H](CCC(N)=O)NC(=O)[C@](C)(CO)NC(=O)[C@@H](N)Cc1c[nH]cn1)[C@@H](C)O)[C@@H](C)O)C(=O)N[C@@H](CC(=O)O)C(=O)N[C@@H](C)C(=O)N[C@@H](CCCNC(=N)N)C(=O)N[C@@H](C)C(=O)N[C@@H](C)C(=O)N[C@@H](CCCCNC(=O)COCCOCCNC(=O)COCCOCCNC(=O)CC[C@H](NC(=O)CCCCCCCCCCCCCCCCC(=O)O)C(=O)O)C(=O)N[C@@H](CC(=O)O)C(=O)N[C@@H](Cc1ccccc1)C(=O)N[C@H](C(=O)N[C@@H](CCC(N)=O)C(=O)N[C@@H](Cc1c[nH]c2ccccc12)C(=O)N[C@@H](CC(C)C)C(=O)N[C@@H](CCS(C)(=O)=O)C(=O)N[C@@](C)(CC(=O)O)C(=O)N[C@H](C(N)=O)[C@@H](C)O)C(C)C [TP616] (H-H[αMeS]QGTFTSDYSKYLDARAAK([AEEA-AEEA-γGlu-C18 diacid])DFVQWL[Met(O2)][αMeD]T-NH2; N-terminus assumed) |
